Results reported in patent US8722910B2, “Diyne compositions” (Evolva AG, priority 2009, dated 2014).
In brackets after ≈: the same amount, converted by molar mass. Several values for one entry are separate records, joined by “and”; a condition that tells them apart may be missing. Identical values can stand only once. Like-named read-outs stand apart in the source and are kept apart here.

How the values were obtained:
[1] = system: C. parapsilosis ATCC-90018; test: MIC versus reference Candida strains (broth micro dilution); design: MICs (100% inhibition): unit not given beside the values; settings: for MIC: Lodderomyces parapsilosis
[2] = system: C. tropicalis ATCC-750; test: as above; design: MICs (100% inhibition): unit not given beside the values; settings: for MIC: Candida tropicalis
[3] = system: OLE1; test: OLE1 expression by real time PCR; format: cell-based, S. cerevisiae
Experimental: The expression of OLE1 was determined by real time PCR 10, 60, 120 and 240 min after compound addition (Knechtle, P. and Greve, K., 2009). OLE1 transcript levels were calibrated to the expression of the tubulin gene (TUB1) and normalized to the OLE1 expression at 10 min without compound addition (FIG. 17(a)).
The expression of the OLE1 gene was determined by real time PCR 10, 60, 120 and 240 min for the conditions a.-e., as indicated in Table 3 above. OLE1 transcript levels were calibrated to the expression of the tubulin gene (TUB1) and normalized to the OLE1 expression at 10 min without compound addition. See FIG. 17a showing time dependent expressions of OLE1 in response to compound IV″. Conditions a.-e. are listed in Table 3 above, numbers indicate time intervals in minutes. Expressions of OLE1 are given as multiples of the expression at 10 min, condition a. […] 10 μg/ml oleic acid compensated for the OLE1 expression increase caused by 1 μg/ml compound IV alone. Compound IV″ dependent up-regulation of OLE1 expression thus confirms that compound IV″ is acting as an inhibitor of the Ole1 protein. The antagonistic effect of oleic acid found in the susceptibility assays, is reflected mechanistically in this experiment by a down-regulation of the target Ole1 protein through oleic acid.

[4] = system: C. albicans ATCC-24433; test: MIC versus reference Candida strains (broth micro dilution); design: MICs (100% inhibition): unit not given beside the values; settings: for MIC: Candida albicans
[5] = system: C. krusei ATCC-6258; test: as above; design: MICs (100% inhibition): unit not given beside the values; settings: for MIC: Pichia kudriavzevii
[6] = system: C. parapsilosis ATCC-22019; test: as above; design: MICs (100% inhibition): unit not given beside the values; settings: for MIC: Lodderomyces parapsilosis
[7] = system: C. glabrata ATCC-90030; test: as above; design: MICs (100% inhibition): unit not given beside the values; settings: for MIC: Nakaseomyces glabratus
[8] = system: C. albicans SC5314; test: as above; format: cell-based
[9] = system: C. albicans ATCC-90028; test: as above; design: MICs (100% inhibition): unit not given beside the values; settings: for MIC: Candida albicans
[10] = system: S. cerevisiae; test: Doubling times of S. cerevisiae; format: cell-based
Experimental: S. cerevisiae was cultured in the presence of 1 and 10 μg/ml of the potassium salt, 10 μg/ml oleic acid and 1 μg/ml of the potassium salt combined with 10 μg/ml oleic acid.
When S. cerevisiae was cultured in the presence of 1 and 10 μg/ml compound IV″, the doubling times increased to 2.4 h and 4.2 h, respectively, compared to 2 h for the untreated control. The addition of 10 μg/ml oleic acid, sodium salt, to 1 μg/ml compound IV″ reversed the doubling time to 2 h as observed for the untreated control or 10 μg/ml oleic acid, sodium salt alone.

[11] = system: Candida albicans; test: In vitro antifungal activity vs. yeasts (MIC/MFC); format: cell-based; settings: Candida albicans (n = 8)
[12] = system: C. guilliermondii; test: In vitro antifungal activity vs. yeasts (MIC/MFC); format: cell-based; settings: Meyerozyma guilliermondii, C. guilliermondii (n = 1)
[13] = system: M. vanbreuseghemii; test: In vitro antifungal activity vs. dermatophytes (MIC/MFC); format: cell-based; settings: M. vanbreuseghemii (n = 1)
[14] = system: M. gallinae; test: as above; format: cell-based; settings: M. gallinae (n = 1)
[15] = system: Trichophyton tonsurans; test: as above; format: cell-based; settings: Trichophyton tonsurans (n = 15)
[16] = system: Staphylococcus aureus 29213; test: In vitro Antibacterial Activity; format: cell-based; settings: read-out: MIC90
[17] = system: all dermatophyte strains; test: MIC and MFC range over all dermatophyte strains tested; format: cell-based, dermatophytes; settings: Table 14 strains
[18] = system: T. mentagrophytes; test: In vitro antifungal activity vs. dermatophytes (MIC/MFC); format: cell-based; settings: T. mentagrophytes (n = 15)

Structure (SMILES): O=C([O-])CCCCCCC/C=C\C#CC#Cc1ccco1.[K+] [Compound IV″, potassium (Z)-14-(furan-2-yl)tetradeca-9-en-11,13-diynoate]
- MIC breakpoints ([1]; C. parapsilosis ATCC 90018, CLSI M27-A3, growth inhibition of 100%, 35° C., 24 hrs): >10240 ng/mL
- MICs (100% inhibition) ([1]; C. parapsilosis ATCC 90018, NCCLS M27A, 35° C., 24 hrs): >10240
- MIC ([1]; ATCC90018, read-out: minimal inhibitory concentrations): > 10200 ng/mL
- MIC breakpoints ([2]; C. tropicalis ATCC 750, CLSI M27-A3, growth inhibition of 100%, 35° C., 24 hrs): 7.5 ng/mL
- MICs (100% inhibition) ([2]; C. tropicalis ATCC 750, NCCLS M27A, 35° C., 24 hrs): 7.5
- MIC ([2]; ATCC750): 5 ng/mL
- MIC ([2]; ATCC750, read-out: minimal inhibitory concentrations): 7.5 ng/mL
- increase of the expression level of OLE1 ([3]; 1 μg/ml, 10-240 min): 3-5 fold
- increase of the expression level of OLE1 ([3]; 1 μg/ml, at 120 min): 4.9 fold
- increase of the expression level of OLE1 ([3]; 10 μg/ml, 10-240 min): 7-19 fold
- increase of the expression level of OLE1 ([3]; 10 μg/ml, at 120 min): 18.7 fold
- MIC breakpoints ([4]; C. albicans ATCC 24433, CLSI M27-A3, growth inhibition of 100%, 35° C., 24 hrs): 2.5 ng/mL
- MICs (100% inhibition) ([4]; C. albicans ATCC 24433, NCCLS M27A, 35° C., 24 hrs): 2.5
- MIC ([4]; ATCC24433, read-out: minimal inhibitory concentrations): 2.5 ng/mL
- MIC breakpoints ([5]; C. krusei ATCC 6258, CLSI M27-A3, growth inhibition of 100%, 35° C., 24 hrs): 60 ng/mL
- MICs (100% inhibition) ([5]; C. krusei ATCC 6258, NCCLS M27A, 35° C., 24 hrs): 60
- MIC ([5]; ATCC6258): 20 ng/mL
- MIC ([5]; ATCC6258, read-out: minimal inhibitory concentrations): 60 ng/mL
- MIC breakpoints ([6]; C. parapsilosis ATCC 22019, CLSI M27-A3, growth inhibition of 100%, 35° C., 24 hrs): 10240 ng/mL
- MICs (100% inhibition) ([6]; C. parapsilosis ATCC 22019, NCCLS M27A, 35° C., 24 hrs): 10240
- MIC ([6]; ATCC22019, read-out: minimal inhibitory concentrations): 10200 ng/mL
- MIC breakpoints ([7]; C. glabrata ATCC 90030, CLSI M27-A3, growth inhibition of 100%, 35° C., 24 hrs): 60 ng/mL
- MICs (100% inhibition) ([7]; C. glabrata ATCC 90030, NCCLS M27A, 35° C., 24 hrs): 60
- MIC ([7]; ATCC90030): 20 ng/mL
- MIC ([7]; ATCC90030, read-out: minimal inhibitory concentrations): 60 ng/mL
- MIC [8]: 1.25 ng/mL
- MIC breakpoints ([9]; C. albicans ATCC 90028, CLSI M27-A3, growth inhibition of 100%, 35° C., 24 hrs): 5 ng/mL
- MICs (100% inhibition) ([9]; C. albicans ATCC 90028, NCCLS M27A, 35° C., 24 hrs): 5
- MIC ([9]; ATCC90028, read-out: minimal inhibitory concentrations): 5 ng/mL
- Doubling time ([10]; 1 μg/ml): 2.4 h
- Doubling time ([10]; 1 μg/ml combined with 10 μg/ml oleic acid): 2 h and 2.1 h
- Doubling time ([10]; 10 μg/ml): 4.2 h

Structure (SMILES): O=C(O)CCCCCCC/C=C\C#CC#Cc1ccco1 [Compound III″]
- MIC ([1]; ATCC90018): 2560 ng/mL (≈ 9000 nM)
- MFC [11]: < 0.06 ng/mL
- MIC ([11]; 90% inhibition endpoint): < 0.06 ng/mL
- MIC ([2]; ATCC750): 2.5 ng/mL (≈ 8.79 nM)
- MFC [12]: 0.5 ng/mL (≈ 1.76 nM)
- MIC ([12]; 90% inhibition endpoint): < 0.06 ng/mL
- MIC ([4]; ATCC24433): 1.25 ng/mL (≈ 4.4 nM)
- MIC ([5]; ATCC6258): 10 ng/mL (≈ 35.2 nM)
- MIC ([6]; ATCC22019): 2560 ng/mL (≈ 9000 nM)
- MIC ([7]; ATCC90030): 10 ng/mL (≈ 35.2 nM)
- MIC [8]: 0.5 ng/mL (≈ 1.76 nM)
- MIC ([13]; 96 h, 35° C., 4 days): 30 ng/mL (≈ 106 nM)
- MFC [13]: 16000 ng/mL (≈ 56300 nM)
- MIC90/MIC range 48 h ([13]; 48 h): 30 ng/mL (≈ 106 nM)
- MIC ([9]; ATCC90028): 1.25 ng/mL (≈ 4.4 nM)
- MIC ([14]; 96 h, 35° C., 4 days): < 0.06 ng/mL
- MFC [14]: 4000 ng/mL (≈ 14100 nM)
- MIC90/MIC range 48 h ([14]; 48 h): <0.06 ng/mL
- MIC ([15]; 96 h, 35° C., 4 days): < 0.06 ng/mL
- MFC [15]: < 0.06 ng/mL
- MIC90/MIC range 48 h ([15]; MIC90, 48 h): <0.06 ng/mL
- MIC90 [16]: 50000 ng/mL (≈ 176000 nM)
- MFC range against dermatophytes [17]: <0.06 to 16000 ng/mL
- MIC range against all dermatophyte strains [17]: <0.06 to 1000 ng/mL
- MIC90/MIC range 48 h ([18]; MIC90, 48 h): <0.06 ng/mL
- MIC ([18]; Trichophyton mentagrophytes, 96 h, 35° C., 4 days): < 0.06 ng/mL
- MFC ([18]; Trichophyton mentagrophytes): 0.1 ng/mL (≈ 0.352 nM)
